Assay [1] in a line: Inhibition of Xanthomonas oryzae pv. oryzae KS-1-21 uridyltransferase domain of GlmU activity by ion-pair reverse-phase HPLC analysis.
The test system of assay [2] is Xanthomonas oryzae pv. oryzae. Put plainly: Antibacterial activity against Xanthomonas oryzae pv. oryzae KS-1-21 after 36 to 48 hrs by broth microdilution assay. It is filed as functional. Background: Broth dilution looks for growth in wells or tubes with falling amounts of substance.
Assay [3] is described as follows: Uncompetitive inhibition of Xanthomonas oryzae pv. Oryzae KS-1-21 GlmU using 0.25 to 0.05 mM GlcNAc-1-p and 500 uM UTP by Lineweaver-Burk plot analysis.
A short description of assay [4]: Competitive inhibition of Xanthomonas oryzae pv. Oryzae KS-1-21 GlmU using varying concentration of UTP and 500 uM GlcNAc-1-p by Lineweaver-Burk plot analysis.
Assay [5] can be described thus: Noncompetitive inhibition of Xanthomonas oryzae pv. Oryzae KS-1-21 GlmU using varying concentration of UTP and 500 uM GlcNAc-1-p by Lineweaver-Burk plot analysis.
A short description of assay [6]: Noncompetitive inhibition of Xanthomonas oryzae pv. Oryzae KS-1-21 GlmU using 0.25 to 0.05 mM GlcNAc-1-p and 500 uM UTP by Lineweaver-Burk plot analysis.
The nature of assay [7]: Uncompetitive inhibition of Xanthomonas oryzae pv. Oryzae KS-1-21 GlmU using varying concentration of UTP and 500 uM GlcNAc-1-p by Lineweaver-Burk plot analysis.
Assay [8] can be described thus: Competitive inhibition of Xanthomonas oryzae pv. Oryzae KS-1-21 GlmU using 0.25 to 0.05 mM GlcNAc-1-p and 500 uM UTP by Lineweaver-Burk plot analysis.

Structures are written as SMILES. Converted amounts (≈) assume the structure as drawn.

Take `CCOc1ccc(C(=O)NCCCCCCCNC(=O)c2ccc(OCC)cc2)cc1`: the half-maximal inhibitory concentration (IC50) (in general, the point on the concentration scale where inhibition reaches its midpoint) in assay [1] is 76.5 µM. Moreover, the MIC (usually the lowest concentration found to suppress growth) in assay [2] was more than 500 µg/mL.

Consider `CCCCCOc1ccc(/C=N/NC(=O)c2nnn(-c3nonc3N)c2CN2CCCCCC2)cc1`, for which half-maximal inhibition in assay [1] (IC50) was put at 87.4 µM. The MIC in assay [2] is more than 500 µg/mL.

On to `O=C(CCCCC(=O)NNC(=O)COc1ccc2ccccc2c1)NNC(=O)COc1ccc2ccccc2c1`, for which the IC50 in assay [1] worked out at 14.2 µM. The values for the Ki in assay [3] and in assay [4] were 8.23 µM and 8.1 µM, respectively. Also, the MIC in assay [2] was 302 µg/mL (≈ 557 µM).

Consider `Cc1cc(OCC(=O)NNC(=O)c2ccc(O)cc2O)cc(C)c1Cl`, for which, in assay [1], the IC50 came out at 23.2 µM. This molecule also returned an MIC in assay [2] of 420 µg/mL (≈ 1150 µM). Besides, the Ki (in general, a dissociation constant, usually derived from enzyme kinetics or from competition with a known ligand) in assay [5] came out at 8.89 µM; in assay [6] it was 19.4 µM.

In assay [1], `CCN(CC)c1ccc(/C=C(\NC(=O)c2ccccc2)C(=O)N/N=C/c2cc(O)ccc2Br)cc1` yielded an IC50 of 62.5 µM. For the same molecule, the MIC in assay [2] was more than 500 µg/mL.

For the molecule `Cc1ccc(OCC(=O)Nc2ccccc2C(=O)NC2CCCCC2)cc1`, the IC50 in assay [1] was 84.2 µM. For the same molecule, the MIC in assay [2] was more than 500 µg/mL.

For the molecule `O=c1cc(-c2ccc(O)c(O)c2)oc2cc(O)cc(O)c12` [LUTEOLIN], in assay [1], the IC50 was 0.81 µM. Also, the Ki in assay [7] was 0.99 µM; in assay [8], 0.44 µM. In addition, 186 µg/mL (≈ 651 µM) was the least that counted as inhibitory in assay [2] (MIC).

Take `COc1ccc(C(=O)/C=C/c2cn(CC(O)CN3CCCCC3)c3ccccc23)cc1OC` (configuration not stated): the IC50 in assay [1] is more than 100 µM. The minimum inhibitory concentration (MIC) in assay [2] amounted to 82 µg/mL (≈ 183 µM).
